We go through 5 compounds from article PMC6681301, “Multi-Target β-Protease Inhibitors from Andrographis paniculata: In Silico and In Vitro Studies” (Plants, 2019).

Each structure is given as a SMILES string.

In one experiment the test system is AChE. Details: method as in PMID 29850593. The note with it: cited from earlier work.
In a further experiment the test system is BChE. Set-up: method as in PMID 29850593. Conditions: cited from earlier work.
The target of experiment [1] is butyrylcholinesterase (Human) (Homo sapiens, UniProt P06276). The experiment can be described thus: In vitro BChE activity assay (Ellman). It is filed as biochemical. How it is done:
(§1) The inhibitory activities of both AChE and BChE were measured using the spectrophotometric method developed by Ellman. Acetylcholinesterase (Human), butyrylcholinesterase (Human) with […] (ACh), and […] (BCh) were used as their substrates, respectively. The enzyme activity was observed using Varioskan Flash (version 4.00.53), and the reading was observed using SkanIt Software (2.4.5 RE for Varioskan Flash). AChE and BChE solutions of ~0.15 unit/μL were prepared. The stock solution of AChE substrate (2.5 μM) and BChE substrate (2.5 μM) solution was prepared with DMSO, respectively.
(§2) The isolated compound inhibitor solutions were prepared using the same method as discussed in the BACE-1 assay. The sodium phosphate buffer (pH 8) (78 μL, 79 μL, 80 μL, 81 μL), 20 μL of the 5, 5′-dithiobis-(2-nitrobenzoic acid) (DTNB), AChE, and BChE enzyme solution (2 μL), substrate solution (20 μL), and inhibitor solutions (0 μL, 1 μL, 2 μL, 3 μL, 4 μL) were added to a 96-well plate. Each concentration was considered in triplicate. The plate was incubated for 15 min at 25 °C, and the readings were taken at 412 nm. The percentage inhibition was calculated using the formula percentage inhibition = (1 − C/I) × 100, where C and I were the enzyme activities without and with the test sample, respectively.
For orientation: In Ellman's method for cholinesterases, released thiocholine reacts with DTNB.

Another experiment has as its target T1, BACE-1 (Homo sapiens, UniProt P56817).
T1 construct: purchased Sigma
Description: In vitro BACE-1 activity assay (Sigma BACE-1 FRET assay kit). The class given is biochemical. How it is done: The assay was performed according to the manufacturer protocol supplied in BACE-1 activity (Sigma, BACE-1FRET assay kit). […] The BACE-1 substrate solution (50 μM), a BACE-1 enzyme solution (2 μL), and inhibitor solutions were prepared as per the manufacturer’s protocol.
BACE-1 substrate solution was prepared with 1 mg/mL (500 μM) by adding 0.5 ml of DMSO to BACE-1 substrate. 7-Methoxycumarin-4-acetyl-Asn670, Lue 671-Amyloid β/A4 Precursor Protein 770 Fragment 667-(2,4 dinitrophenyl), and Lys-Arg-Arg amide […] salt was used as a substrate for BACE-1. A BACE-1 enzyme solution of ~0.3 unit/μL was prepared. […] The isolated compounds were used for the isolated inhibitor solution preparation. The 5281780 solution (20 μM) with 1% DMSO was prepared after heating the solution at 55 °C for 5 min. The 188316 solution (20 μM) was prepared with 1% DMSO. The 5280443 solution was also prepared with concentration of 20 μM in 1% DMSO. These inhibitor solutions with variable concentrations (1 μM, 2 μM, 3 μM, 4 μM) were used for testing BACE-1 activities. The fluorescence assay buffer (78 μL, 79 μL, 80 μL, 81 μL), a BACE-1 enzyme solution (2 μL), the substrate solution (20 μL), and inhibitor solutions (0 μL, 1 μL, 2 μL, 3 μL, 4 μL) were added to a 96-well plate. Each concentration was considered in triplicate. […] The plate was incubated for 120 min at 37 °C, and the readings were taken. The readings were noted as S120. The percent inhibition was calculated using the formula, percent inhibition = [1 − (S120 − S0)/(C120 − C0)] × 100 [139].

Experiment [2] concerns the target Acetylcholinesterase (Human) (Homo sapiens, UniProt P22303). The experiment can be described thus: In vitro AChE activity assay (Ellman). The class given is biochemical. How it is done: as §1, §2
Experiment [3] addresses glycogen synthase kinase-3b. Conditions: read-out: IC50, inhibition of glycogen synthase kinase-3b; cited from earlier work.
A further experiment concerns AChE (electric eel). Details: method as in PMID 23529036. The note with it: cited from earlier work.
In another experiment the test system is BChE (equine serum). Set-up: method as in PMID 23529036. Conditions: cited from earlier work.

Sequence of Acetylcholinesterase (Human) (P22303 32-614): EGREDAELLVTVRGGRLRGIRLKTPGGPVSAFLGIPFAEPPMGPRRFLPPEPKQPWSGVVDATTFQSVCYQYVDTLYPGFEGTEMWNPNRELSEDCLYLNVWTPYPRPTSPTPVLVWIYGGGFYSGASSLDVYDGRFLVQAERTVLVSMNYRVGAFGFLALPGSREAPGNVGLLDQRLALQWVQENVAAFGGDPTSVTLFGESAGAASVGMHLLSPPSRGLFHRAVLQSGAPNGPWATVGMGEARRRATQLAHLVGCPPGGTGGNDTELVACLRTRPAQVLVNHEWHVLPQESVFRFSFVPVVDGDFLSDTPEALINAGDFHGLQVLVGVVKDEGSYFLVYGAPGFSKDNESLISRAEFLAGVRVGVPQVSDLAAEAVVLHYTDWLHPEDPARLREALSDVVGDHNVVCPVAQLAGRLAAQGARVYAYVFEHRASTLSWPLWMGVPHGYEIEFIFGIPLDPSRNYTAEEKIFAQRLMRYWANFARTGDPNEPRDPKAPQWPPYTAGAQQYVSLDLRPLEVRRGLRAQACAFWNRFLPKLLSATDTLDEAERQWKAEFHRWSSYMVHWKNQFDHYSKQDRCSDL
T1 sequence (P56817 46-501): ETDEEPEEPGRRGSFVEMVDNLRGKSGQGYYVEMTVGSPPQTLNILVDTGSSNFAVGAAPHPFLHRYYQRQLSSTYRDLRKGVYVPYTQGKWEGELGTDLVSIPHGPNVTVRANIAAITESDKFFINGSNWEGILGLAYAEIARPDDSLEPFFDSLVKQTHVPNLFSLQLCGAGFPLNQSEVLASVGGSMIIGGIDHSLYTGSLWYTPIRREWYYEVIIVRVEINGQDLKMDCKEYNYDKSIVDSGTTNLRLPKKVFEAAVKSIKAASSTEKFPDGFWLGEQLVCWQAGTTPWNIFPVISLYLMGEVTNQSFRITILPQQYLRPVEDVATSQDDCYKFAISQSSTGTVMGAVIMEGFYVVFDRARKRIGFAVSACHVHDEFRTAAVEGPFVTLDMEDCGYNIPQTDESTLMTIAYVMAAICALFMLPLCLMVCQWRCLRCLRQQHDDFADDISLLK
Sequence of butyrylcholinesterase (Human) (P06276 29-602): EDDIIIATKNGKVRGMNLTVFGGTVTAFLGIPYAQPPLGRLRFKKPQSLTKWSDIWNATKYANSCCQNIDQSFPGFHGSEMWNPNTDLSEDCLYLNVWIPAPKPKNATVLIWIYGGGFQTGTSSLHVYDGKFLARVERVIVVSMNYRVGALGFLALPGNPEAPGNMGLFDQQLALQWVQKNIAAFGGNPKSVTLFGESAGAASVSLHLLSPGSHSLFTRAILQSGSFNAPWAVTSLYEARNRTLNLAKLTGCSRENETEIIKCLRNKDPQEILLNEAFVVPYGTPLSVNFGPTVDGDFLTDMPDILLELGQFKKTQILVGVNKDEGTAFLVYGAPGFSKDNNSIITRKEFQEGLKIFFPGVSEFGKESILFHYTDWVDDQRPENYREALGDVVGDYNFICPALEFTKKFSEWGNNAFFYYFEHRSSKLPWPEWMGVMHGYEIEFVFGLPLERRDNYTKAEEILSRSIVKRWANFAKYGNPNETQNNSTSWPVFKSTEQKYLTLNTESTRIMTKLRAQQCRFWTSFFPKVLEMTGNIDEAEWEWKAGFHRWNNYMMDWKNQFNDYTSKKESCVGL

As for `COc1cc2c(cc1O)C[C@H]1c3c(cc(O)c(OC)c3-2)CCN1C` [Boldine], the half-maximal inhibitory concentration (IC50) in the experiment with AChE was 372000 nM; in the experiment with BChE, 321000 nM.
For `COc1cc(O)c2c(=O)cc(-c3ccccc3)oc2c1OC` [Compound 188316, 7-o-methylwogonin], the figures for the IC50 (in experiment [1]; against BACE-1; in experiment [2]) were 1460 ± 20 nM, 2910 ± 40 nM and 2460 ± 30 nM, respectively. The “potency relative to eserine” value in experiment [2] (comparison of IC50 values (Table 4)) was roughly 1.5 fold.
In the case of `O=c1cc(-c2ccc(O)cc2)oc2cc(O)cc(O)c12` [Compound 5280443, apigenin], the IC50 was 1970 ± 10 nM in experiment [1], 3790 ± 260 nM against BACE-1, 3420 ± 20 nM in experiment [2] and 1900 nM in experiment [3].
Consider `O=C(C=Cc1ccc(O)c(O)c1)OC1CC(O)(C(=O)O)CC(O)C1OC(=O)C=Cc1ccc(O)c(O)c1` (centres unmarked) [Compound 5281780, 3,4-di-o-caffeoylquinic acid], for which the IC50 turned out to be 3310 ± 120 nM against BACE-1 and 2140 ± 40 nM in experiment [2].
As for `CNC(=O)Oc1ccc2c(c1)[C@]1(C)CCN(C)[C@@H]1N2C` [Eserine], the IC50 is […] with AChE (electric eel) and […] in the experiment on BChE (equine serum).

Usually IC50 stands for the point on the concentration scale where inhibition reaches its midpoint.
